Tested on: pain and/or inflammation in volunteers
Assay: Tests on various subjects using Composition 2 (pain and/or inflammation)
Assay type: in vivo
Conditions: past medication of volunteers; testimony
Description: Composition 2 was tested on several subjects so as to verify its activity as anti-inflammatory agent and/or analgesic. As it can be seen from Table 1, test subjects having various inflammations or pain have been treated with Composition 2. In each case, a small amount of Composition 2, in the form of a cream, was applied to inflamed skin area by means of a short gentle rub.

Compound: CC(=O)Oc1ccccc1C(=O)O [Aspirin, acetylsalicylic acid]
- gastric side effect reported by volunteers: severe gastric burning sensation

Reference: US20100137248A1, “BORON-CONTAINING COMPOUNDS, USES AND PREPARATION THEREOF” (DINOTEC INC., priority 2007, published 2010)
